Measured values reported in patent US7666611B2, “Lysophosphatidic acid receptor” (Japan Science and Technology Agency, priority 2003, dated 2010).
“Also recorded” adds a separate entry of the source.

Tests used:
[1] = system: ATP receptors endogenously expressed in CHO cells; test: ATP positive control, intracellular calcium change in CHO clones; assay type: cell-based; conditions: ATP 1 μM, 10 μM and 100 μM
Description: Over 200 lipids (Lipid Library; BIOMOL) and nucleotides were screened using CHO clones of respective receptors by monitoring changes in intracellular calcium concentrations. As positive controls for the screenings, ATP with concentrations of 1 μM, 10 μM and 100 μM were used.
CHO clones of four individual receptors such as GPR34, p2y5, p2y9 and p2y10 were seeded respectively in three 96-well plates at a density of 4×10^4 cells/well. On the following day, cells were loaded with 4 μM of Fluo-3 (calcium indicator) and incubated at 37° C. for 1 hour for incorporation of Fluo-3. Cells were then reacted with individual lipids (1 to 10 μM) contained in the Lipid Library of BIOMOL comprising over 200 kinds of lipid molecules and 17 nucleotides (1 to 100 μM) such as ATP, then time course kinetics of intracellular calcium mobilization was monitored with FLEXstation of Molecular Devices.
This enabled to confirm the relevance of the experiment.

p2y9 = target: T1, p2y9 (Homo sapiens, UniProt Q99677); test: Intracellular calcium increase in four CHO clones stably expressing p2y9 (Fura-2); assay type: cell-based; conditions: p2y9 clones vs negative control, FIG. 15
T1 construct: expressed in transfected cells
T1 sequence (Q99677 whole entry): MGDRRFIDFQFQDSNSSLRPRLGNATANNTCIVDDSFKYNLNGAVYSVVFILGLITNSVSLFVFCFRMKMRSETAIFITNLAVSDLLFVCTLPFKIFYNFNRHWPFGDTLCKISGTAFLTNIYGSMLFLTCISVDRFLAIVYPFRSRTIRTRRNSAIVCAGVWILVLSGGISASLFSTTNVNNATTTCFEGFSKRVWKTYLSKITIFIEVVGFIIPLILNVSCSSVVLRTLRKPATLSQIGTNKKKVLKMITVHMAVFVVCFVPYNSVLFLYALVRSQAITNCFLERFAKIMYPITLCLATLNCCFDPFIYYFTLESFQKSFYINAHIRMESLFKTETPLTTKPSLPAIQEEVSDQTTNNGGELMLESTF
Description: Then the investigation with respect to CHO clone has been carried out. Experiment of calcium incorporation was conducted in four independent CHO clones, #01, #09, #15 and #20, stably expressing p2y9. […] As a negative control, CHO cells which acquired neomycin resistance by transfected only with pCXN2.1 vector were used.
Four types of CHO clones, #01, #09, #15 and #20, stably expressing p2y9 were incubated for 24 hours in the medium of Ham's F-12 supplemented with 0.1% BSA in replacement of Ham's F-12 supplemented with 10% fetal bovine serum. The cells were then suspended in HEPES-Tyrode's buffer (140 mM NaCl, 2.7 mM KCl, 1 mM CaCl2, 12 mM NaHCO3, 5.6 mM D-glucose, 0.49 mM MgCl2, 0.37 mM NaH2PO4, and 25 mM HEPES-NaOH (pH 7.4)) containing 3 μM Fura-2 (calcium indicator) and 0.01% Cremophor EL. Cells were incubated at 37° C. for 1 hour for incorporation of Fura-2. Cells were then resuspended in HEPES-Tyrode's buffer in order to achieve a cell density of 1×10^6 cells/ml. The changes in intracellular concentrations with addition of various concentrations of LPAs were monitored by using CAF-100 spectrofluorometer (Jasco, Tokyo, Japan). As a negative control, CHO cells which acquired neomycin resistance by transfected only with pCXN2.1 vector were used.

In the case of Nc1ncnc2c1ncn2[C@@H]1O[C@H](COP(=O)(O)OP(=O)(O)OP(=O)(O)O)[C@@H](O)[C@H]1O [ATP], the “change in intracellular calcium concentration” value [1] is reported as “remarkable change in intracellular calcium concentration beyond the measurable range; also recorded: changes in calcium concentration beyond the measurable range” and the “increase in intracellular calcium concentration” value (p2y9; ATP 10 μM) is reported as “no significant difference; also recorded: no significant changes”.

With platelet activating factor [PAF] the “increase in intracellular calcium concentration” value (p2y9; PAF 1 μM) was “no significant difference; also recorded: no significant changes”.

thrombin was tested, and the “increase in intracellular calcium concentration” value (p2y9; thrombin 0.1 NIH units/ml) was “no significant difference; also recorded: no significant changes”.
